This passage reports IC50 results from US20170114049A1, “2,5-DISUBSTITUTED CYCLOPENTANE CARBOXYLIC ACIDS FOR THE TREATMENT OF RESPIRATORY TRACT DISEASES” (BAYER PHARMA AKTIENGESELLSCHAFT, priority 2014, published 2017).

Assay type in all cases: biochemical
Test [1] has as its target T1, human macrophage elastase (HME/hMMP-12) (Homo sapiens, UniProt P39900).
T1 construct: 0.5 nM HME; purchased R&D Systems 917-MP
The experiment in a line: In vitro HME inhibition test in the presence of serum albumin (BSA) in the reaction buffer. To be noted: presence of serum albumin (BSA) 2% (w/w). An excerpt:
This test corresponds to the standard HME inhibition test described above, except using a modified reaction buffer. This reaction buffer additionally contains bovine serum albumin (BSA, fatty acid-free, A6003, from Sigma-Aldrich) of final concentration 2% (w/w), which corresponds to about half the physiological serum albumin content.

For a further test, the target named is T2, MMP-2 (Homo sapiens, UniProt P08253).
T2 construct: purchased R&D Systems 902-MP
T2 sequence (P08253 110-660): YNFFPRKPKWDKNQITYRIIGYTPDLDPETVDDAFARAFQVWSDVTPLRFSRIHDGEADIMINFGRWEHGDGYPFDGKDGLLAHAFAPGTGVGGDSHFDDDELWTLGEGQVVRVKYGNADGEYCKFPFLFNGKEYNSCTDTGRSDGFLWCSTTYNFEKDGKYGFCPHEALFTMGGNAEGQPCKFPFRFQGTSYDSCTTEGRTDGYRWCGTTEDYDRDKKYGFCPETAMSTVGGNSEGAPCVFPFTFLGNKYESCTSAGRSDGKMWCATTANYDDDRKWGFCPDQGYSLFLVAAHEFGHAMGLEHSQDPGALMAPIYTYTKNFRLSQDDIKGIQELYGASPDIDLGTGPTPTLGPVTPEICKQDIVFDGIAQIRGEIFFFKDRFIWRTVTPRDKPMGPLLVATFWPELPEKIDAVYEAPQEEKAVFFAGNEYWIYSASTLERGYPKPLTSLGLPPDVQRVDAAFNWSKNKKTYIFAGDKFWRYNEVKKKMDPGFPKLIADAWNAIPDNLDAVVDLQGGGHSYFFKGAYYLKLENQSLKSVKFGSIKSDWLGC
The experiment in a line: In vitro MMP-2 inhibition test. An excerpt:
(§1) The MMP-mediated amidolytic cleavage of a suitable peptide substrate leads to an increase in fluorescent light here too. The signal intensity of the fluorescent light is directly proportional to the enzyme activity. The active concentration of a test compound at which half the enzyme is inhibited (50% signal intensity of the fluorescent light) is reported as the […].
(§2) Recombinant MMP-2 (from R&D Systems, 902-MP) is chemically activated in accordance with the manufacturer's instructions using APMA. 1 μl of the test compound to be analysed (as a solution in DMSO, suitable concentrations, for example, 1 nM to 30 μM) is pipetted into 24 μl of activated enzyme (final concentration, for example, 2 nM) in reaction buffer (50 mM Tris/HCl pH 7.5, 10 mM CaCl2, 150 mM NaCl, 0.05% Brij®-35) in a white 384-hole microtiter plate (MTP). The enzymatic reaction is started by adding the intramolecularly quenched Mca-Pro-Leu-Gly-Leu-Dpa(Dnp)-Ala-Arg-NH2 substrate (final concentration, for example, 10 μM; R&D Systems, ES-001), so as to result in a total test volume of 50 μl. The course of the MMP-2 reaction is measured by measuring the fluorescence intensity (excitation 320 nm, emission 410 nm) over a suitable period of time (for example over 120 min at a temperature of 32° C.).

The target in the next test is T3, MMP-13 (Homo sapiens, UniProt P45452).
T3 construct: purchased R&D Systems 511-MP
The experiment in a line: In vitro MMP-13 inhibition test.
Text: as §1
as §2, with “Recombinant MMP-13” for “Recombinant MMP-2”, “Systems, 511-MP)” for “Systems, 902-MP)”, “example, 0.1” for “example, 2”, “the MMP-13” for “the MMP-2”

In a further test the target is T4, MMP-14 (Homo sapiens, UniProt P50281).
T4 construct: purchased R&D Systems 918-MP
Kind of test: In vitro MMP-14 inhibition test.
Text: as §1
Recombinant MMP-14 (from R&D Systems, 918-MP) is enzymatically activated in accordance with the manufacturer's instructions using recombinant furin (from R&D Systems, 1503-SE). 1 μl of the test compound to be analysed (as a solution in DMSO, suitable concentrations e.g. 1 nM to 30 μM) is pipetted into 24 μl of activated enzyme (final concentration e.g. 0.5 nM) in reaction buffer (50 mM Tris/HCl pH 7.5, 10 mM CaCl2, 150 mM NaCl, 0.05% Brij®-35) in a white 384-hole microtiter plate (MTP). The enzymatic reaction is started by adding the intramolecularly quenched Mca-Lys-Pro-Leu-Gly-Leu-Dpa(Dnp)-Ala-Arg-NH2 substrate (final concentration, for example, 5 μM; R&D Systems, ES-010), so as to result in a total test volume of 50 μl. The course of the MMP-14 reaction is measured by measuring the fluorescence intensity (excitation 320 nm, emission 410 nm) over a suitable period of time (for example over 120 min at a temperature of 32° C.).

Another test deals with T5, mouse MMP-3 (Mus musculus, UniProt P28862).
T5 construct: purchased R&D Systems 548-MP
Kind of test: In vitro mouse MMP-3 inhibition test.

Another test addresses T6, mouse MMP-8 (Mus musculus, UniProt O70138).
T6 construct: purchased R&D Systems 2904-MP
The experiment in a line: In vitro mouse MMP-8 inhibition test.

T1 sequence (P39900 106-470): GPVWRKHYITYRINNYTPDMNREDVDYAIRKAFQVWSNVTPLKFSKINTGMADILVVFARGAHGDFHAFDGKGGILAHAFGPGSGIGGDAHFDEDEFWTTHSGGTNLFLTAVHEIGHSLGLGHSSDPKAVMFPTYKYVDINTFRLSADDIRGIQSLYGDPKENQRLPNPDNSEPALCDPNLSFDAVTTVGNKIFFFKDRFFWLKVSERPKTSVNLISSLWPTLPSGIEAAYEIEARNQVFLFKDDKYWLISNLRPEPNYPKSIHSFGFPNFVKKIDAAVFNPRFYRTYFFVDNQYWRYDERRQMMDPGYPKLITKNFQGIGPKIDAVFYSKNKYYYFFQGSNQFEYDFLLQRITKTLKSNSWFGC
T6 sequence (O70138 101-465): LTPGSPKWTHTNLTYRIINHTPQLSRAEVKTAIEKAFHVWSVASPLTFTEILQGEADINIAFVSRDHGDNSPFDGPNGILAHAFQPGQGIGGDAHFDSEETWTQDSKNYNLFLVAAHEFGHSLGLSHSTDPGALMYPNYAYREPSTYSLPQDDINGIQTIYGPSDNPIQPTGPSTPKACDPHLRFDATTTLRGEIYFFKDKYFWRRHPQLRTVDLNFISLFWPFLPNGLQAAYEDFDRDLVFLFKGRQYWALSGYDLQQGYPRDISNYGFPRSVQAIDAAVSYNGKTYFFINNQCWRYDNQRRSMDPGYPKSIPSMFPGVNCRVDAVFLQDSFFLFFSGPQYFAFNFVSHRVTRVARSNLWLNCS
T5 sequence (P28862 100-477): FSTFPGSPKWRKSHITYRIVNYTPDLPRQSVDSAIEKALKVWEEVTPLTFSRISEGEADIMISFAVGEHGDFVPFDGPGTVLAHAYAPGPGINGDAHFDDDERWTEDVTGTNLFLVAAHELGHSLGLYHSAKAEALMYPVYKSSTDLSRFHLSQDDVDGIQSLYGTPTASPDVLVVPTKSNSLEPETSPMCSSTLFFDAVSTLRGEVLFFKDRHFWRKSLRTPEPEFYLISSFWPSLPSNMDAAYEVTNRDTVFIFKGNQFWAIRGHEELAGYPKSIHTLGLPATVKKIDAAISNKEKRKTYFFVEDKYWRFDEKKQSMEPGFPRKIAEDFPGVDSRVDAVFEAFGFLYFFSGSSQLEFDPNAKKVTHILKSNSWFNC

In the case of `O=C(O)[C@@H]1[C@@H](Cn2nnc3ccccc3c2=O)CC[C@H]1C(=O)c1ccc(OCC2CCOCC2)cc1` (stereo in doubt) [Example 2, (+)-(1RS,2SR,5RS)-2-[(4-Oxo-1,2,3-benzotriazin-3(4H)-yl)methyl]-5-[4-(tetrahydro-2H-pyran-4-ylmethoxy)benzoyl]cyclopentanecarboxylic acid], the 50% inhibitory concentration (IC50) (commonly the midpoint of a concentration-inhibition curve) in test [1] came to 6.71 nM; on MMP-2 it was 60 nM; against MMP-13 it was 49 nM; against MMP-14, 99 nM; against mouse MMP-3, 710 nM; on mouse MMP-8 it was 21 nM.
For the compound `O=C(O)[C@@H]1[C@@H](Cn2nnc3ccccc3c2=O)CC[C@H]1C(=O)c1ccc(OCCC2CCOCC2)cc1` (single isomer, unassigned) [Example 5, (+)-(1RS,2SR,5RS)-2-[(4-Oxo-1,2,3-benzotriazin-3(4H)-yl)methyl]-5-{4-[2-(tetrahydro-2H-pyran-4-yl)ethoxy]benzoyl}cyclopentanecarboxylic acid], the IC50 in test [1] amounted to 4.06 nM; against MMP-2 it was 44 nM; against MMP-13, 67 nM; at MMP-14, 250 nM; against mouse MMP-3, 270 nM; against mouse MMP-8 it was 54 nM.
Take `O=C(O)[C@@H]1[C@@H](Cn2nnc3ccc(C(F)(F)F)cc3c2=O)CC[C@H]1C(=O)c1ccc(OCCC2CCOCC2)cc1` (single isomer, unassigned) [Example 11, (+)-(1RS,2SR,5RS)-2-{[4-Oxo-6-(trifluoromethyl)-1,2,3-benzotriazin-3(4H)-yl]methyl}-5-{4-[2-(tetrahydro-2H-pyran-4-yl)ethoxy]benzoyl}cyclopentanecarboxylic acid]: the IC50 in test [1] worked out at 39.2 nM; against MMP-2, 510 nM; at MMP-13, 470 nM; against MMP-14 it was 1200 nM; on mouse MMP-3, 620 nM; against mouse MMP-8, 34 nM.
Consider “(+)-(1RS,2SR,5RS)-2-{[4-Oxo-6-(trifluoromethyl)-1,2,3-benzotriazin-3(4H)-yl]methyl}-5-[4-(tetra-hydro-2H-pyran-4-ylmethoxy)benzoyl]cyclopentanecarboxylic acid [Example 8]”, for which the 50% inhibitory concentration (IC50) came out at 2.45 nM in test [1], 140 nM against MMP-2, 51 nM against MMP-13 and 100 nM on MMP-14.
For the compound `O=C(O)[C@H]1[C@H](Cn2nnc3ccccc3c2=O)CC[C@@H]1C(=O)c1ccc(OCC2CCOCC2)cc1` (stereo in doubt) [Example 1, (+/−)-(1RS,2SR,5RS)-2-[(4-Oxo-1,2,3-benzotriazin-3(4H)-yl)methyl]-5-[4-(tetrahydro-2H-pyran-4-ylmethoxy)benzoyl]cyclopentanecarboxylic acid], the IC50 in test [1] came to 6.45 nM; against MMP-2, 140 nM; on MMP-13, 110 nM; against MMP-14 it was 160 nM; on mouse MMP-3 it was 570 nM; on mouse MMP-8, 40 nM.
For `O=C(O)[C@H]1[C@H](Cn2nnc3ccc(C(F)(F)F)cc3c2=O)CC[C@@H]1C(=O)c1ccc(OCC2CCOCC2)cc1` (racemic) [Example 7, (+/−)-(1RS,2SR,5RS)-2-{[4-Oxo-6-(trifluoromethyl)-1,2,3-benzotriazin-3(4H)-yl]methyl}-5-[4-(tetrahydro-2H-pyran-4-ylmethoxy)benzoyl]cyclopentanecarboxylic acid], the IC50 turned out to be 380 nM on MMP-2, 140 nM against MMP-13 and 170 nM at MMP-14.
Turning to `O=C(O)[C@H]1[C@H](Cn2nnc3ccccc3c2=O)CC[C@@H]1C(=O)c1ccc(OCCC2CCOCC2)cc1` (stereo in doubt) [Example 4, (+/−)-(1RS,2SR,5RS)-2-[(4-Oxo-1,2,3-benzotriazin-3(4H)-yl)methyl]-5-{4-[2-(tetrahydro-2H-pyran-4-yl)ethoxy]benzoyl}cyclopentanecarboxylic acid], the half-maximal inhibitory concentration (IC50) in test [1] was 37.3 nM; on MMP-2, 360 nM; on MMP-13, 460 nM; on MMP-14, 2700 nM; on mouse MMP-3 it was 4000 nM; at mouse MMP-8, 370 nM.
Consider `O=C(O)[C@H]1[C@H](Cn2nnc3ccc(C(F)(F)F)cc3c2=O)CC[C@@H]1C(=O)c1ccc(OCCC2CCOCC2)cc1` (stereo in doubt) [Example 10, (+/−)-(1RS ,2S R,5RS)-2-{[4-Oxo-6-(trifluoromethyl)-1,2,3-benzotriazin-3(4H)-yl]methyl}-5-{4-[2-(tetrahydro-2H-pyran-4-yl)ethoxy]benzoyl}cyclopentanecarboxylic acid], for which the IC50 amounted to 220 nM on MMP-2; 230 nM against MMP-13; 600 nM against MMP-14; 120 nM against mouse MMP-3; 14 nM on mouse MMP-8.
On to `Cc1ccc2nnn(C[C@H]3CC[C@@H](C(=O)c4ccc(OCCC5CCOCC5)cc4)[C@@H]3C(=O)O)c(=O)c2c1` (single isomer, unassigned) [Example 20, (+)-(1RS,2SR,5RS)-2-[(6-Methyl-4-oxo-1,2,3-benzotriazin-3(4H)-yl)methyl]-5-{4-[2-(tetrahydro-2H-pyran-4-yl)ethoxy]benzoyl}cyclopentanecarboxylic acid], for which the half-inhibitory concentration (IC50) in test [1] came out at 12.2 nM; at MMP-2 it was 300 nM; at MMP-13, 170 nM; at MMP-14, 1000 nM; against mouse MMP-3, 670 nM; against mouse MMP-8 it was 46 nM.
Regarding `O=C(O)[C@@H]1[C@@H](Cn2nnc3ccc(C(F)(F)F)cc3c2=O)CC[C@H]1C(=O)c1ccc(SCC2CCOCC2)cc1` (single isomer, unassigned) [Example 15, (+)-(1RS,2SR,5RS)-2-{[4-Oxo-6-(trifluoromethyl)-1,2,3-benzotriazin-3(4H)-yl]methyl}-5-{4-[(tetrahydro-2H-pyran-4-ylmethyl)sulphanyl]benzoyl}cyclopentanecarboxylic acid], the half-maximal inhibitory concentration (IC50) in test [1] worked out at 16 nM; at MMP-2 it was 330 nM; at MMP-13 it was 220 nM; against MMP-14, 150 nM.
